Assays:
[1] = biological target: Serine/threonine-protein kinase NLK (Homo sapiens) (UniProt Q9UBE8); conditions: Compound concentration 1000.0 nM
[2] = biological target: Phosphatidylinositol 3-kinase catalytic subunit type 3 (Homo sapiens) (UniProt Q8NEB9); conditions: Compound concentration 1000.0 nM
[3] = biological target: MAP/microtubule affinity-regulating kinase 4 (Homo sapiens) (UniProt Q96L34); conditions: Compound concentration 1000.0 nM
[4] = biological target: Mitogen-activated protein kinase kinase kinase 10 (Homo sapiens) (UniProt Q02779); conditions: Compound concentration 1000.0 nM
[5] = biological target: Beta-1 adrenergic receptor (Homo sapiens) (UniProt P08588); conditions: Compound concentration 10.0 uM
[6] = biological target: Myosin-IIIb (Homo sapiens) (UniProt Q8WXR4); conditions: Compound concentration 1000.0 nM
[7] = biological target: Alpha-1B adrenergic receptor (Homo sapiens) (UniProt P35368); conditions: Compound concentration 10.0 uM
[8] = biological target: Angiopoietin-1 receptor (Homo sapiens) (UniProt Q02763); conditions: Compound concentration 1000.0 nM
[9] = tested on: Phosphatidylinositol 4,5-bisphosphate 3-kinase catalytic subunit alpha isoform (Homo sapiens), P42336 [E545K]; conditions: Compound concentration 1000.0 nM
[10] = biological target: Phosphatidylinositol 4,5-bisphosphate 3-kinase catalytic subunit delta isoform (Homo sapiens) (UniProt O00329); conditions: Compound concentration 1000.0 nM
[11] = biological target: Mitogen-activated protein kinase kinase kinase 13 (Homo sapiens) (UniProt O43283); conditions: Compound concentration 1000.0 nM
[12] = biological target: Alpha-2C adrenergic receptor (Homo sapiens) (UniProt P18825); conditions: Compound concentration 10.0 uM
[13] = biological target: Insulin-like growth factor 1 receptor (Homo sapiens) (UniProt P08069); conditions: Compound concentration 1000.0 nM
[14] = tested on: Receptor-type tyrosine-protein kinase FLT3 (Homo sapiens), P36888 [D835H]; conditions: Compound concentration 1000.0 nM
[15] = biological target: Serine/threonine-protein kinase pim-1 (Homo sapiens) (UniProt P11309); conditions: Compound concentration 1000.0 nM
[16] = biological target: MAP/microtubule affinity-regulating kinase 3 (Homo sapiens) (UniProt P27448); conditions: Compound concentration 1000.0 nM
[17] = biological target: NUAK family SNF1-like kinase 2 (Homo sapiens) (UniProt Q9H093); conditions: Compound concentration 1000.0 nM
[18] = tested on: Epidermal growth factor receptor (Homo sapiens), P00533 [L861Q]; conditions: Compound concentration 1000.0 nM
[19] = tested on: Receptor-type tyrosine-protein kinase FLT3 (Homo sapiens), P36888 [D835V]; conditions: Compound concentration 1000.0 nM
[20] = biological target: Activated CDC42 kinase 1 (Homo sapiens) (UniProt Q07912); conditions: Compound concentration 1000.0 nM
[21] = biological target: Cyclin-dependent kinase 4 (Homo sapiens) (UniProt P11802); conditions: Compound concentration 1000.0 nM
[22] = biological target: Hepatocyte growth factor receptor (Homo sapiens) (UniProt P08581); conditions: Compound concentration 1000.0 nM
[23] = biological target: Transient receptor potential cation channel subfamily M member 6 (Homo sapiens) (UniProt Q9BX84); conditions: Compound concentration 1000.0 nM
[24] = biological target: Rhodopsin kinase GRK1 (Homo sapiens) (UniProt Q15835); conditions: Compound concentration 1000.0 nM
[25] = biological target: Hormonally up-regulated neu tumor-associated kinase (Homo sapiens) (UniProt P57058); conditions: Compound concentration 1000.0 nM
[26] = biological target: Platelet-derived growth factor receptor beta (Homo sapiens) (UniProt P09619); conditions: Compound concentration 1000.0 nM
[27] = biological target: Serine/threonine-protein kinase BRSK2 (Homo sapiens) (UniProt Q8IWQ3); conditions: Compound concentration 1000.0 nM
[28] = biological target: Serine/threonine-protein kinase Nek2 (Homo sapiens) (UniProt P51955); conditions: Compound concentration 1000.0 nM
[29] = biological target: Mitogen-activated protein kinase kinase kinase 19 (Homo sapiens) (UniProt Q56UN5); conditions: Compound concentration 1000.0 nM
[30] = biological target: SRSF protein kinase 2 (Homo sapiens) (UniProt P78362); conditions: Compound concentration 1000.0 nM
[31] = tested on: Phosphatidylinositol 4,5-bisphosphate 3-kinase catalytic subunit alpha isoform (Homo sapiens), P42336 [I800L]; conditions: Compound concentration 1000.0 nM
[32] = biological target: Casein kinase II subunit alpha (Homo sapiens) (UniProt P68400); conditions: Compound concentration 1000.0 nM
[33] = biological target: Peripheral plasma membrane protein CASK (Homo sapiens) (UniProt O14936); conditions: Compound concentration 1000.0 nM
[34] = biological target: ALK tyrosine kinase receptor (Homo sapiens) (UniProt Q9UM73); conditions: Compound concentration 1000.0 nM
[35] = biological target: Serine/threonine-protein kinase WNK4 (Homo sapiens) (UniProt Q96J92); conditions: Compound concentration 1000.0 nM
[36] = biological target: Cyclin-dependent kinase 9 (Homo sapiens) (UniProt P50750); conditions: Compound concentration 1000.0 nM
[37] = biological target: Serine/threonine-protein kinase PknB (Mycobacterium tuberculosis) (UniProt P9WI81); conditions: Compound concentration 1000.0 nM
[38] = tested on: Tyrosine-protein kinase ABL1 (Homo sapiens), P00519 [F317L]; conditions: Compound concentration 1000.0 nM
[39] = biological target: Cyclin-dependent kinase-like 3 (Homo sapiens) (UniProt Q8IVW4); conditions: Compound concentration 1000.0 nM
[40] = biological target: Cyclin-dependent kinase 11A (Homo sapiens) (UniProt Q9UQ88); conditions: Compound concentration 1000.0 nM
[41] = biological target: Tyrosine-protein kinase Fes/Fps (Homo sapiens) (UniProt P07332); conditions: Compound concentration 1000.0 nM
[42] = biological target: Ephrin type-A receptor 8 (Homo sapiens) (UniProt P29322); conditions: Compound concentration 1000.0 nM
[43] = biological target: cAMP-dependent protein kinase catalytic subunit PRKX (Homo sapiens) (UniProt P51817); conditions: Compound concentration 1000.0 nM
[44] = biological target: Histamine H4 receptor (Homo sapiens) (UniProt Q9H3N8); conditions: Compound concentration 10.0 uM
[45] = biological target: Fibroblast growth factor receptor 4 (Homo sapiens) (UniProt P22455); conditions: Compound concentration 1000.0 nM

Chain of Alpha-1B adrenergic receptor (Homo sapiens) (P35368 whole entry): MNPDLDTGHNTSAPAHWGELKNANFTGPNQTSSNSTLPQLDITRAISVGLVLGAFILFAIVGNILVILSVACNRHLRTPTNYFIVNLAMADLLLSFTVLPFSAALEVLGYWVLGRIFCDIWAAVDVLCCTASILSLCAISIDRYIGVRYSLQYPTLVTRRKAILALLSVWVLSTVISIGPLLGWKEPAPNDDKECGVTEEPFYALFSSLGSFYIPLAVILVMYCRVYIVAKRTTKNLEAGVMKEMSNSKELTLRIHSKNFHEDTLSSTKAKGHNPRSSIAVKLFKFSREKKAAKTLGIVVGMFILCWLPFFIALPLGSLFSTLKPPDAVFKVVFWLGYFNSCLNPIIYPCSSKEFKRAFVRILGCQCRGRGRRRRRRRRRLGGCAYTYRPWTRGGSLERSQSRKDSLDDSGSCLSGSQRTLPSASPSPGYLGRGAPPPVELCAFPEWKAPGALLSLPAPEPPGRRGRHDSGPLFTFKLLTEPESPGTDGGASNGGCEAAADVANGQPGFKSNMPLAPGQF
Chain of Tyrosine-protein kinase Fes/Fps (Homo sapiens) (P07332 whole entry): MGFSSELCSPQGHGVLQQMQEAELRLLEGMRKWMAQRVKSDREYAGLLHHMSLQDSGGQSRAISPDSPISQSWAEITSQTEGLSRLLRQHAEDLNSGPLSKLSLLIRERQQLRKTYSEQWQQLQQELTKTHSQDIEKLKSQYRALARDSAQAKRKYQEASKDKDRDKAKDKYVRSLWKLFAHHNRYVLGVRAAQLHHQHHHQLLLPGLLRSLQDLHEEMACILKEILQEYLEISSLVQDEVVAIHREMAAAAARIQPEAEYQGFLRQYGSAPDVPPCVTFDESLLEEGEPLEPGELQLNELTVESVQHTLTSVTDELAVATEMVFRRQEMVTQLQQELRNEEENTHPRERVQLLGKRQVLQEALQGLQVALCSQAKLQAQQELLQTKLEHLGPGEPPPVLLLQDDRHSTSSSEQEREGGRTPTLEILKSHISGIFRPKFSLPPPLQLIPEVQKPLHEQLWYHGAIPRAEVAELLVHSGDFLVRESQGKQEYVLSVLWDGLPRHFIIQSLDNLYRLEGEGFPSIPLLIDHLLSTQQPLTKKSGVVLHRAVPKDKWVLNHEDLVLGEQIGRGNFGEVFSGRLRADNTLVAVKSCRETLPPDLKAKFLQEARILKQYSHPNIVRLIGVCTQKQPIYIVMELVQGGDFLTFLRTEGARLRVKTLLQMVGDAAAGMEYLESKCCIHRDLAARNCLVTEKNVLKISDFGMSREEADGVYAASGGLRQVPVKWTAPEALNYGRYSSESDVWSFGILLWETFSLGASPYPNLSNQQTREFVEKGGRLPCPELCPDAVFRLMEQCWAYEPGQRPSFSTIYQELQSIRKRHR
Chain of Cyclin-dependent kinase 11A (Homo sapiens) (Q9UQ88 whole entry): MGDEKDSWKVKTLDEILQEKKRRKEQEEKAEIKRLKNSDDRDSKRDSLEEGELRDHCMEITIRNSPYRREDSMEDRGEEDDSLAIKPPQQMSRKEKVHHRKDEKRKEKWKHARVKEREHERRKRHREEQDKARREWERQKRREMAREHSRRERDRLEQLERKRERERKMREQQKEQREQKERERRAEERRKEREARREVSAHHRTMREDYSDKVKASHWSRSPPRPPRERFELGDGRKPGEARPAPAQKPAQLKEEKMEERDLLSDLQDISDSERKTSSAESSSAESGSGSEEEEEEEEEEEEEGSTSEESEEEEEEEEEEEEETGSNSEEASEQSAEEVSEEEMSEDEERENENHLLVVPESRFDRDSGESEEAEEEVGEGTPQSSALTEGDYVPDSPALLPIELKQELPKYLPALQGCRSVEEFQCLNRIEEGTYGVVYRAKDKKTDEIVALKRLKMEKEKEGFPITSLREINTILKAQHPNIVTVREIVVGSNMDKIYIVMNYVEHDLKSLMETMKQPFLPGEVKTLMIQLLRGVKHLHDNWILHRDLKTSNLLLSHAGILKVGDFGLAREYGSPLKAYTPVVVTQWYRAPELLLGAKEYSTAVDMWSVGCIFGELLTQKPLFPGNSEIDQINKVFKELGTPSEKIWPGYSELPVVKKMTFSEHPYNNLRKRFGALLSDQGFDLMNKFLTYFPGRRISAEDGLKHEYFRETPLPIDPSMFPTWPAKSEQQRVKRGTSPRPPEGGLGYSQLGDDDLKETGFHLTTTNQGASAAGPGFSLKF
Chain of Transient receptor potential cation channel subfamily M member 6 (Homo sapiens) (Q9BX84 whole entry): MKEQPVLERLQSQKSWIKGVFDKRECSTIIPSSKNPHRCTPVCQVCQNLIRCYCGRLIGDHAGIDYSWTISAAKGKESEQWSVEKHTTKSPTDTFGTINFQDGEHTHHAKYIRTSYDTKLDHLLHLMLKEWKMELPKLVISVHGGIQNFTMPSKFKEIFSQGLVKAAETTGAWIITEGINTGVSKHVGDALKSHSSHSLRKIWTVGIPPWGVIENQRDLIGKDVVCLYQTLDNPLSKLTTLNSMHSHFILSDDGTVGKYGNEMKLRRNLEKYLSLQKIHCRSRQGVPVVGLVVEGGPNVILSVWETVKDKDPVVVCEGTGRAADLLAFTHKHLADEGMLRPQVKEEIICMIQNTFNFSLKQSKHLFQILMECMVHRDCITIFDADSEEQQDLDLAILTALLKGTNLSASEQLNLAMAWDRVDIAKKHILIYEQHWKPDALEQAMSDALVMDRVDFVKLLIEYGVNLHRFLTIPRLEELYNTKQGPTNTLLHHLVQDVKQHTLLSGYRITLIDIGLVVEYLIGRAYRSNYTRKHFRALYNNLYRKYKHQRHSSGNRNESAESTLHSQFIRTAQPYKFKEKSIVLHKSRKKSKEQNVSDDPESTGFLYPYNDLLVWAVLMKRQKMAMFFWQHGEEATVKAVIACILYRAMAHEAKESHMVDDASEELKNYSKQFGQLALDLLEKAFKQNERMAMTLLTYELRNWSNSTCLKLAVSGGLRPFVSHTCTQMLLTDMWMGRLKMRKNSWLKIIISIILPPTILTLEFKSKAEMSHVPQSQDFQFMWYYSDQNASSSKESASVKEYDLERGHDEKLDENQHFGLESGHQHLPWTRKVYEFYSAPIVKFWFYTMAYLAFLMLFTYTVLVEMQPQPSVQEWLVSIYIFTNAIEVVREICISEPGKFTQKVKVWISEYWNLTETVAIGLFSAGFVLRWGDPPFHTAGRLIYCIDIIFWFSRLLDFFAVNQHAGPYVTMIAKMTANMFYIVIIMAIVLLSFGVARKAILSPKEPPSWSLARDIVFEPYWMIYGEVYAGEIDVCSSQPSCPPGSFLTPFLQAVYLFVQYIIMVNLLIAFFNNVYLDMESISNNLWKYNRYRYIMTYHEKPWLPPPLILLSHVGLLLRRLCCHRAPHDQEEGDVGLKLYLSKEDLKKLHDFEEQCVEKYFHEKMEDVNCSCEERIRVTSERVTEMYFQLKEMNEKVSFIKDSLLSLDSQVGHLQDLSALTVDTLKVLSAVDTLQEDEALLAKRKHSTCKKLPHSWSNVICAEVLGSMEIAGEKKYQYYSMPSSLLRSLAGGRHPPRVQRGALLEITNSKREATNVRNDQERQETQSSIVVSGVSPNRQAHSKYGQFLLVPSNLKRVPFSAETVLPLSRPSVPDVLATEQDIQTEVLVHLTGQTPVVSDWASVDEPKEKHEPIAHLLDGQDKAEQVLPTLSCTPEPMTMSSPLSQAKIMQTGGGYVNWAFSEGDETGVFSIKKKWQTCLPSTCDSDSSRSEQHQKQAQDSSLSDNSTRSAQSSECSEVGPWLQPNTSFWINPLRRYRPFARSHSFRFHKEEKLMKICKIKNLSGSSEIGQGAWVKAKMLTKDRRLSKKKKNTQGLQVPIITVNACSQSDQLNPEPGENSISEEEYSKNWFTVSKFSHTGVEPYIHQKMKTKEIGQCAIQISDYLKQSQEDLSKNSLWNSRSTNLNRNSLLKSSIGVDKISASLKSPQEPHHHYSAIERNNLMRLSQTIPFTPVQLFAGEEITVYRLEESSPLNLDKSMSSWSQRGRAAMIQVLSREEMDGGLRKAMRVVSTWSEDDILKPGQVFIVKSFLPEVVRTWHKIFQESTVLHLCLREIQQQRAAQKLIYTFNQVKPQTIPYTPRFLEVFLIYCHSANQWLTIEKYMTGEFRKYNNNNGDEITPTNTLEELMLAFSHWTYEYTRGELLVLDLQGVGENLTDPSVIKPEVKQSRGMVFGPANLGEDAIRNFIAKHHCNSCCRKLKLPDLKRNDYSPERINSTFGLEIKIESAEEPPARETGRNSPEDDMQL
Chain of Cyclin-dependent kinase-like 3 (Homo sapiens) (Q8IVW4 whole entry, looked up): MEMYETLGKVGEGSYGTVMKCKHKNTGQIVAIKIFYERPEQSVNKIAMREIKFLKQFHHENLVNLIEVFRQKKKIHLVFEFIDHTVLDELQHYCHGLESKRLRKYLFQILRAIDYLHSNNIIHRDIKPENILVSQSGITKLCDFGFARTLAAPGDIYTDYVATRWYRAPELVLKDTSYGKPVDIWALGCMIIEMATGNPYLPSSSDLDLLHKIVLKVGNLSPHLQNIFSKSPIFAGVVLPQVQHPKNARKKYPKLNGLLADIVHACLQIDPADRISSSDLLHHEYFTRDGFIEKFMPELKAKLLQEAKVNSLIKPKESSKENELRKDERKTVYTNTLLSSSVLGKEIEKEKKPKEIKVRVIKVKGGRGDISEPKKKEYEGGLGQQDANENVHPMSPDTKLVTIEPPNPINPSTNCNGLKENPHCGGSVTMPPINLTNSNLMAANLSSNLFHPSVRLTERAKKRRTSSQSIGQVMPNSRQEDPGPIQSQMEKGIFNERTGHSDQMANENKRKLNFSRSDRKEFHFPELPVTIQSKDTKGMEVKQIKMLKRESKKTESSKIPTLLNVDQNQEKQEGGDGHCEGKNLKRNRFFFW
Chain of cAMP-dependent protein kinase catalytic subunit PRKX (Homo sapiens) (P51817 whole entry): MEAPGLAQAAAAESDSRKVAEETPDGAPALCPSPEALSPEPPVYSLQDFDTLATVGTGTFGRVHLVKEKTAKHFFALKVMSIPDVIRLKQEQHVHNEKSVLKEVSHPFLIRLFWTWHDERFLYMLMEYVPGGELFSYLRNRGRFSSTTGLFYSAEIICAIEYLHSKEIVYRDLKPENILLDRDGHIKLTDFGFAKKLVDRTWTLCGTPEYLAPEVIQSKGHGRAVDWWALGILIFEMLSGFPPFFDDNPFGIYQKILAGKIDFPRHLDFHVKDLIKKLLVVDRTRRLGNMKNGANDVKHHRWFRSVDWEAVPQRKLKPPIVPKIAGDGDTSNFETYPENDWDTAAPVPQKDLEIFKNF

O=C1NC(c2ccccn2)Sc2ccccc21 (stereo not given) [BTZO-4]
inactive: residual activity [1] 100% | residual activity [2] 99% | residual activity [3] 100% | residual activity [4] 94% | inhibition [5] -1.52% | residual activity [6] 96% | inhibition [7] -5.82% | residual activity [8] 100% | residual activity [9] 73% | residual activity [10] 51% | residual activity [11] 100% | inhibition [12] -4.89% | residual activity [13] 80% | residual activity [14] 65% | residual activity [15] 82% | residual activity [16] 95% | residual activity [17] 100% | residual activity [18] 77% | residual activity [19] 100% | residual activity [20] 100% | residual activity [21] 93% | residual activity [22] 68% | residual activity [23] 64% | residual activity [24] 81% | residual activity [25] 80% | residual activity [26] 83% | residual activity [27] 100% | residual activity [28] 100% | residual activity [29] 92% | residual activity [30] 100% | residual activity [31] 80% | residual activity [32] 61% | residual activity [33] 71% | residual activity [34] 89% | residual activity [35] 100% | residual activity [36] 100% | residual activity [37] 77% | residual activity [38] 100% | residual activity [39] 88% | residual activity [40] 100% | residual activity [41] 94% | residual activity [42] 63% | residual activity [43] 100% | inhibition [44] 1.89% | residual activity [45] 89%

O=c1nc(-c2ccccn2)sc2ccccc12 [BTZO-1]
inactive: residual activity [1] 100% | residual activity [2] 82% | residual activity [3] 100% | residual activity [4] 100% | inhibition [5] -8.56% | residual activity [6] 79% | inhibition [7] 9.84% | residual activity [8] 99% | residual activity [9] 65% | residual activity [10] 54% | residual activity [11] 100% | inhibition [12] -9.43% | residual activity [13] 80% | residual activity [14] 74% | residual activity [15] 85% | residual activity [16] 89% | residual activity [17] 100% | residual activity [18] 68% | residual activity [19] 100% | residual activity [20] 100% | residual activity [21] 100% | residual activity [22] 74% | residual activity [23] 77% | residual activity [24] 76% | residual activity [25] 81% | residual activity [26] 83% | residual activity [27] 100% | residual activity [28] 84% | residual activity [29] 86% | residual activity [30] 100% | residual activity [31] 84% | residual activity [32] 68% | residual activity [33] 84% | residual activity [34] 84% | residual activity [35] 100% | residual activity [36] 95% | residual activity [37] 88% | residual activity [38] 100% | residual activity [39] 88% | residual activity [40] 94% | residual activity [41] 100% | residual activity [42] 78% | residual activity [43] 100% | inhibition [44] -0.975% | residual activity [45] 73%
